Experimental data as given in ChEMBL document CHEMBL1145376, “C-8 Modifications of 3-alkyl-1,8-dibenzylxanthines as inhibitors of human cytosolic phosphoenolpyruvate carboxykinase” (Bioorg Med Chem Lett, 2007).

These compounds were tested against T1, Phosphoenolpyruvate carboxykinase, cytosolic [GTP] (Homo sapiens) (UniProt P35558) (assay: Inhibition of human cPEPCK at 1 uM).
T1 sequence (whole entry): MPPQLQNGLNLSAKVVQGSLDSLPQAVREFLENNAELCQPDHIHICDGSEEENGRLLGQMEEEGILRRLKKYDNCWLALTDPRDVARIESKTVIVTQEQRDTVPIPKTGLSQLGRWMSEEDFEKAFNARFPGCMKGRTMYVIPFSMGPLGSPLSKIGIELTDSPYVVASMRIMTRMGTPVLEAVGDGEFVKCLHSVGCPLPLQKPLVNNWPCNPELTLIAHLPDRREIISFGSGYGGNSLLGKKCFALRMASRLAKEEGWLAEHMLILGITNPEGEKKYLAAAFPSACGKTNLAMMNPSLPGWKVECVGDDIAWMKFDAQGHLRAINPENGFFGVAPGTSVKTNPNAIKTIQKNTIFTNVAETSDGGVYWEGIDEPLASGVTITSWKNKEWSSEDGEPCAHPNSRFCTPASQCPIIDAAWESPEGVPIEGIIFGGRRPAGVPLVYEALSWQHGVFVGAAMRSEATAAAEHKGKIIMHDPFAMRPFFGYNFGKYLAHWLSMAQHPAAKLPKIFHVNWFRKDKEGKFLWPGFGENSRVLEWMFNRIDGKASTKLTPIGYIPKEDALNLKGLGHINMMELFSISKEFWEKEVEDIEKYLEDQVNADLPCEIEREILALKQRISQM
An inhibition of 22% was found for CCCCn1c(=O)n(Cc2ccccc2F)c(=O)c2[nH]c(Cc3ccc(NS(=O)(=O)c4ccccc4)cc3)nc21 in this work.
An inhibition of 30% was found for CCCCn1c(=O)n(Cc2ccccc2F)c(=O)c2[nH]c(Cc3ccc(NS(=O)(=O)c4cccs4)cc3)nc21 in this work.
An inhibition of 31% was found for CCCCn1c(=O)n(Cc2ccccc2F)c(=O)c2[nH]c(Cc3ccc(NS(=O)(=O)Cc4ccccc4)cc3)nc21 in this work.
An inhibition of 19% was found for CCCCn1c(=O)n(Cc2ccccc2F)c(=O)c2[nH]c(Cc3ccc(NS(=O)(=O)c4ccsc4C(=O)OC)cc3)nc21 in this work.

These compounds were tested against T2, Phosphoenolpyruvate carboxykinase, cytosolic [GTP] (Rattus norvegicus, UniProt P07379) (assay: Inhibition of cPEPCK in rat H4IIE cells assessed as effect on glucose production).
T2 sequence (P07379 whole entry): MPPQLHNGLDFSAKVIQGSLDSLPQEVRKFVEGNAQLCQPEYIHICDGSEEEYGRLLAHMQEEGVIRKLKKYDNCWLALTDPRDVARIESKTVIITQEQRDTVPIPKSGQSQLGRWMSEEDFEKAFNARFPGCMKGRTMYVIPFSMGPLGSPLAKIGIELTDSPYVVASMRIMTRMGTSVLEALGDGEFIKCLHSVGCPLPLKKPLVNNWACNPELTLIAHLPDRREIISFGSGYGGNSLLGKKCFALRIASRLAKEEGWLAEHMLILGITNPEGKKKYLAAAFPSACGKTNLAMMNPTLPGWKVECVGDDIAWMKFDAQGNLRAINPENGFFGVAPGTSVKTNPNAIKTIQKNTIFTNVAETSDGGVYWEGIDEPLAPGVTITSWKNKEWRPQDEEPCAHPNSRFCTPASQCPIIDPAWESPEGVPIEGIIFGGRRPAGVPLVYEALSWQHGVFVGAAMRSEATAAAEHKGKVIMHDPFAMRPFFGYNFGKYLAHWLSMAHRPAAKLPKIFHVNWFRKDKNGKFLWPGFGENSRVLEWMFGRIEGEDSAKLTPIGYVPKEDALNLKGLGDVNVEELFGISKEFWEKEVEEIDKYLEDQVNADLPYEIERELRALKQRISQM
Type: cell-based
An EC50 of 8600 nM was found for CCCCn1c(=O)n(Cc2ccccc2F)c(=O)c2[nH]c(Cc3ccc(NC(C)=O)cc3)nc21 in this work.
An EC50 of 5570 nM was found for Cc1nn(C)cc1S(=O)(=O)Nc1ccc(Cc2nc3c([nH]2)c(=O)n(Cc2ccccc2F)c(=O)n3CC2CC2)cc1 in this work.
An EC50 of 8750 nM was found for Cn1cc(S(=O)(=O)Nc2ccc(Cc3nc4c([nH]3)c(=O)n(Cc3ccccc3F)c(=O)n4CC3CC3)cc2)cn1 in this work.
An EC50 of 3400 nM was found for Cc1noc(C)c1S(=O)(=O)Nc1ccc(Cc2nc3c([nH]2)c(=O)n(Cc2ccccc2F)c(=O)n3CC2CC2)cc1 in this work.
An EC50 of 4700 nM was found for CC(=O)Nc1ccc(Cc2nc3c([nH]2)c(=O)n(Cc2ccccc2F)c(=O)n3CC2CC2)cc1 in this work.
An EC50 of 3970 nM was found for CCCCn1c(=O)n(Cc2ccccc2F)c(=O)c2[nH]c(Cc3ccc(NS(=O)(=O)c4c(C)nn(C)c4Cl)cc3)nc21 in this work.
An EC50 of 2170 nM was found for Cc1nn(C)c(Cl)c1S(=O)(=O)Nc1ccc(Cc2nc3c([nH]2)c(=O)n(Cc2ccccc2F)c(=O)n3CC2CC2)cc1 in this work.
An EC50 of 8200 nM was found for Cc1nc(N)sc1S(=O)(=O)Nc1ccc(Cc2nc3c([nH]2)c(=O)n(Cc2ccccc2F)c(=O)n3CC2CC2)cc1 in this work.
An EC50 of 5500 nM was found for O=c1c2[nH]c(Cc3ccc(NS(=O)(=O)c4cccnc4)cc3)nc2n(CC2CC2)c(=O)n1Cc1ccccc1F in this work.

What follows are compounds tested against T3, Phosphoenolpyruvate carboxykinase, cytosolic [GTP] (Homo sapiens, UniProt P35558) (assay: Inhibition of human cPEPCK).
T3 sequence (P35558 whole entry): T1 sequence (whole entry)
An IC50 of 2110 nM was found for CCCCn1c(=O)n(Cc2ccccc2F)c(=O)c2[nH]c(Cc3ccc(NC(C)=O)cc3)nc21 in this work.
An IC50 of 240 nM was found for Cc1nn(C)cc1S(=O)(=O)Nc1ccc(Cc2nc3c([nH]2)c(=O)n(Cc2ccccc2F)c(=O)n3CC2CC2)cc1 in this work.
An IC50 of 5650 nM was found for CCCCn1c(=O)n(Cc2ccccc2F)c(=O)c2[nH]c(Cc3ccc(N)cc3N)nc21 in this work.
An IC50 of 1800 nM was found for O=C(Nc1ccc(Cc2nc3c([nH]2)c(=O)n(Cc2ccccc2F)c(=O)n3CC2CC2)cc1)C(F)(F)F in this work.
An IC50 of 690 nM was found for CC(=O)Nc1ccc(Cc2nc3c([nH]2)c(=O)n(Cc2ccccc2F)c(=O)n3CC2CC2)cc1 in this work.
An IC50 of 540 nM was found for CCCCn1c(=O)n(Cc2ccccc2F)c(=O)c2[nH]c(Cc3ccc(NS(=O)(=O)c4c(C)nn(C)c4Cl)cc3)nc21 in this work.
An IC50 of 1560 nM was found for Nc1ccc(Cc2nc3c([nH]2)c(=O)n(Cc2ccccc2F)c(=O)n3CC2CC2)cc1 in this work.
An IC50 of 2300 nM was found for CCCCn1c(=O)n(Cc2ccccc2F)c(=O)c2[nH]c(Cc3ccc(NC(=O)C(F)(F)F)cc3)nc21 in this work.
An IC50 of 2560 nM was found for CCCCn1c(=O)n(Cc2ccccc2F)c(=O)c2[nH]c(Cc3ccc(N)cc3)nc21 in this work.
An IC50 of 2070 nM was found for CN(C)CC(=O)Nc1ccc(Cc2nc3c([nH]2)c(=O)n(Cc2ccccc2F)c(=O)n3CC2CC2)cc1 in this work.
An IC50 of 8700 nM was found for CCCCn1c(=O)n(Cc2ccccc2F)c(=O)c2[nH]c(Cc3ccc(NC(C)=O)cc3NC(C)=O)nc21 in this work.
